# Experimental data reported in PMC3656107, “Polymorphisms in the F8 Gene and MHC-II Variants as Risk Factors for the Development of Inhibitory Anti-Factor VIII Antibodies during the Treatment of Hemophilia A: A Computational Assessment” (PLoS Computational Biology, 2013).
# Legend:
# MHC-II DRB1*07:01 [1] = target: T1, MHC-II DRB1*07:01 (Homo sapiens, UniProt P01903+P01911, A100R/A102G/A103Q/D57E/D86V/E43K/F76Y/K127E/L162R/M171V/P40G/Q125H/Q99D/R33Q/R42Y/R54Q/S133A/S66F/T210M/V115G/Y107V/Y59L/Y89S); assay: Cell-free REVEAL class II binding assay; settings: signal of test peptide as percentage of allele-specific positive control peptide, fluorescence, conformation-specific monoclonal antibody
# Summary of the method: (§1)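 Binding of each test peptide to the MHC-II allele was detected by the native conformation of the peptide–MHC complex, read as a fluorescence rise from a conformation-specific monoclonal antibody. Values are percent of signal from an allele-specific positive control T-cell epitope; an intermediate-affinity binder served as assay control.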
# MHC-II DRB1*11:01 [2] = target: T2, MHC-II DRB1*11:01 (Homo sapiens, UniProt P01903+P01911, A100R/A169T/A87E/I96F/K41T/L162R/M171V/P40S/Q125H/Q178H/Q39Y/Q99D/R42S/S66Y/T262R/V115G/W38E); assay: Cell-free REVEAL class II binding assay; settings: signal of test peptide as percentage of allele-specific positive control peptide, fluorescence, conformation-specific monoclonal antibody
# Summary of the method: as §1
# MHC-II DRB1*15:03 [3] = target: T3, MHC-II DRB1*15:03 (Homo sapiens, UniProt P01903+P01911, Y59H); assay: Cell-free REVEAL class II binding assay; settings: signal of test peptide as percentage of allele-specific positive control peptide, fluorescence, conformation-specific monoclonal antibody
# T3 construct: purchased ProImmune
# Summary of the method: as §1
# MHC-II DRB1*03:01 [4] = target: T4, MHC-II DRB1*03:01 (Homo sapiens, UniProt P01903+P01911, A100K/A102G/A103R/A169T/F55Y/I96L/K41T/L162R/M171V/P40S/Q125H/Q178H/Q39Y/R42S/S66N/T106N/T262R/W38E/Y61H); assay: Cell-free REVEAL class II binding assay; settings: signal of test peptide as percentage of allele-specific positive control peptide, fluorescence, conformation-specific monoclonal antibody
# Summary of the method: as §1
# MHC-II DRB1*15:01 [5] = target: T5, MHC-II DRB1*15:01 (Homo sapiens, UniProt P01903+P01911); assay: Cell-free REVEAL class II binding assay; settings: signal of test peptide as percentage of allele-specific positive control peptide, fluorescence, conformation-specific monoclonal antibody
# T5 construct: purchased ProImmune
# Summary of the method: as §1
# MHC-II DRB1*04:01 [6] = target: T6, MHC-II DRB1*04:01 (Homo sapiens, UniProt P01903+P01911, A100K/A169T/F76Y/I96L/K127E/L162R/M171V/N62H/P40V/Q125Y/R42H/S133A/S149N/S66Y/V115G/V209L/W38E); assay: Cell-free REVEAL class II binding assay; settings: signal of test peptide as percentage of allele-specific positive control peptide, fluorescence, conformation-specific monoclonal antibody
# Summary of the method: as §1
# MHC-II DRB1*07:01 [7] = target: T1, MHC-II DRB1*07:01; assay: Cell-free REVEAL class II stability assay; settings: half-life of peptide-MHC-II complex (h, capped at 120) x Binding Score / 100, conformational ELISA
# Summary of the method: (§2)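 Complexes assemble over 96 hr at 10°C; samples are snap-frozen, then probed by anti-HLA conformational ELISA. Dissociation is sampled the same way. Fitted k yields t1/2, normalized via Binding Score.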
# MHC-II DRB1*11:01 [8] = target: T2, MHC-II DRB1*11:01; assay: Cell-free REVEAL class II stability assay; settings: half-life of peptide-MHC-II complex (h, capped at 120) x Binding Score / 100, conformational ELISA
# Summary of the method: as §2
# MHC-II DRB1*15:03 [9] = target: T3, MHC-II DRB1*15:03; assay: Cell-free REVEAL class II stability assay; settings: half-life of peptide-MHC-II complex (h, capped at 120) x Binding Score / 100, conformational ELISA
# Summary of the method: as §2
# MHC-II DRB1*03:01 [10] = target: T4, MHC-II DRB1*03:01; assay: Cell-free REVEAL class II stability assay; settings: half-life of peptide-MHC-II complex (h, capped at 120) x Binding Score / 100, conformational ELISA
# Summary of the method: as §2
# MHC-II DRB1*15:01 [11] = target: T5, MHC-II DRB1*15:01; assay: Cell-free REVEAL class II stability assay; settings: half-life of peptide-MHC-II complex (h, capped at 120) x Binding Score / 100, conformational ELISA
# Summary of the method: as §2
# MHC-II DRB1*04:01 [12] = target: T6, MHC-II DRB1*04:01; assay: Cell-free REVEAL class II stability assay; settings: half-life of peptide-MHC-II complex (h, capped at 120) x Binding Score / 100, conformational ELISA
# Summary of the method: as §2
# T3 sequence (P01903 26-254, other chains not shown): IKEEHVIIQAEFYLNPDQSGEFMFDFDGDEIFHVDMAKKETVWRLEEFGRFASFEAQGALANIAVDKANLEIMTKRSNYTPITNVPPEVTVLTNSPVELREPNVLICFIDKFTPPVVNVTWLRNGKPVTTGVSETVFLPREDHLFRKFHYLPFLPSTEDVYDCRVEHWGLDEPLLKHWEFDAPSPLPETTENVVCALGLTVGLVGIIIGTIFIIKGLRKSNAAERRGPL
# T4 sequence (P01903 26-254 limits assumed, other chains not shown): as the sequence (P01903 26-254, other chains not shown) above
# T2 sequence (P01903 26-254 limits assumed, other chains not shown): as the sequence (P01903 26-254, other chains not shown) above
Sequence,Binding Score (MHC-II DRB1*07:01 [1]),Binding Score (MHC-II DRB1*11:01 [2]),Binding Score (MHC-II DRB1*15:03 [3]),Binding Score (MHC-II DRB1*03:01 [4]),Binding Score (MHC-II DRB1*15:01 [5]),Binding Score (MHC-II DRB1*04:01 [6]),Stability Index (MHC-II DRB1*07:01 [7]),Stability Index (MHC-II DRB1*11:01 [8]),Stability Index (MHC-II DRB1*15:03 [9]),Stability Index (MHC-II DRB1*03:01 [10]),Stability Index (MHC-II DRB1*15:01 [11]),Stability Index (MHC-II DRB1*04:01 [12])
PPLLTRYLRIHPQSW [synthetic wild type FVIII 15 mer peptide],7.0%,42.2%,21.7%,0.0%,403.3%,9.6%,8.4,5.9,26.0,0.0,483.9,0.9
PQVNNPKEWLQVDFQ [synthetic wild type FVIII 15 mer peptide],0.0%,0.1%,0.0%,0.0%,0.1%,0.0%,0.0,0.0,0.0,0.0,0.2,0.0
PRCLTRYYSSFVNME [synthetic wild type FVIII 15 mer peptide],0.0%,20.5%,72.3%,0.9%,336.9%,9.6%,0.0,1.2,86.8,0.1,404.2,0.7
"PWFAHRTPMPKIQNV [synthetic wild type FVIII 15 mer peptide, region of ns-SNP R776G]",2.7%,4.9%,0.2%,0.1%,4.7%,6.4%,3.2,0.5,0.0,0.1,0.4,0.8
QKFSSLYISQFIIMY [synthetic wild type FVIII 15 mer peptide],0.0%,0.4%,0.0%,0.5%,22.9%,1.9%,0.0,0.0,0.0,0.1,27.5,0.2
"QKTMKVTGVTTQGVK [synthetic wild type FVIII 15 mer peptide, region of ns-SNP M2238V]",0.0%,0.1%,0.0%,0.0%,0.8%,6.6%,0.0,0.0,0.0,0.0,0.5,0.5
RIHPQSWVHQIALRM [synthetic wild type FVIII 15 mer peptide],2.1%,74.9%,1.4%,0.0%,8.3%,54.3%,2.6,4.5,0.1,0.0,10.0,12.6
"RQNVEGSYDGAYAPV [synthetic wild type FVIII 15 mer peptide, region of ns-SNP D1241E]",0.0%,0.1%,0.0%,0.0%,0.0%,0.0%,0.0,0.0,0.0,0.0,0.0,0.0
RSNAWRPQVNNPKEW [synthetic wild type FVIII 15 mer peptide],0.0%,0.1%,0.0%,0.0%,0.4%,18.2%,0.0,0.0,0.0,0.0,0.5,12.4
SDPRCLTRYYSSFVN [synthetic wild type FVIII 15 mer peptide],0.1%,7.8%,13.8%,0.5%,237.9%,2.4%,0.0,0.5,16.6,0.0,285.5,0.2
SGYTFKHKMVYEDTL [synthetic wild type FVIII 15 mer peptide],0.0%,14.9%,0.0%,1.3%,1.0%,1.0%,0.0,2.2,0.0,0.0,1.2,0.1
